Experimental data from patent US20230277630A1, “METHODS AND COMPOSITIONS FOR TREATING AMYOTROPHIC LATERAL SCLEROSIS” (Amylyx Pharmaceuticals, Inc., priority 2022, published 2023).

What was measured:
[1] = Chemical stability in HBSSg_7.4 and HBSS_8.5; format: physicochemical
Protocol: The test article was prepared in DMSO stock (0.5 mM), and aliquots of the DMSO stock were added to each matrix. The nominal concentration of each component was 0.5 μM in each matrix. […] At pre-determined time points, an equal volume of acetonitrile with internal standard was added to each vial, and the mixture was placed at 4° C. until the end of the assay. The peak areas of the test article and IS of each sample were determined by LC-MS/MS, and the ratios of the peak areas (analyte: IS) were calculated.

[2] = target: T1, human liver microsomes (HLM) (Homo sapiens, UniProt P10632); experiment: CYP reaction phenotyping using HLM and chemical inhibitors (% remaining); format: in vitro ADME; details: human, microsomes, 5 μM, pH 7.4
T1 construct: from tissue; host or cells: pooled human liver microsomes
T1 sequence (P10632 1-490): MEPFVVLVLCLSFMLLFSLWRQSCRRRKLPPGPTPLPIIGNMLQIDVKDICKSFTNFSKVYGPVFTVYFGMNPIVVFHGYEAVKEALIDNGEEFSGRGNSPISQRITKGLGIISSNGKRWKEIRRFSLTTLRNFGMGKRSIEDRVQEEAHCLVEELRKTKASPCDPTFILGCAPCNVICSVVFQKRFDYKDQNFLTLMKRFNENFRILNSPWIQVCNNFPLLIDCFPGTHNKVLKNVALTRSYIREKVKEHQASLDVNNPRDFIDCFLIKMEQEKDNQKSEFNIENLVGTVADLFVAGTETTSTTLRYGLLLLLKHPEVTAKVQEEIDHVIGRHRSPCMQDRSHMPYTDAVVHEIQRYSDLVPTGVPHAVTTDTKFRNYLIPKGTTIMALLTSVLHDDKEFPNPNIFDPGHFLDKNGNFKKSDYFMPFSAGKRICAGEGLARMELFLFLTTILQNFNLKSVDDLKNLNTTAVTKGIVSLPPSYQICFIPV
Description: % Remaining of TA=100×At/A0
Where, At and A0 are the peak area ratio of TA to IS at time t and at time zero, respectively.

[3] = test system: P-gp and BCRP; experiment: in vitro; details: human
Protocol: The P-gp and BCRP substrate assessment was conducted in C2BBe1 cell monolayers. […] LY was co-dosed with each dosing solution at a nominal concentration of 200 μM.
The cell culture medium was aspirated, and the cell monolayers were rinsed once with HBSSg_7.4. […] For receiver samples, aliquots (300 μL) were taken at pre-selected time points. […] For donor samples, aliquots (50 μL) were taken at pre-selected time points without replacement.

[4] = Caco-2, pH 7.4, AP-to-BL Papp of TUDCA
[5] = Caco-2, pH 7.4, AP-to-BL Recovery of TUDCA
[6] = Caco-2, pH 7.4, BL-to-AP Papp of TUDCA
[7] = Caco-2, pH 7.4, BL-to-AP Recovery of TUDCA

O=C(O)CCCc1ccccc1 [PB, sodium phenylbutyrate]
Percent of the 0-minute value ([1]; HBSSg_7.4, Overnight (1020-[…])): 105%
Percent of the 0-minute value ([1]; HBSSg_7.4, sampling time 0 minutes): 100%
Percent of the 0-minute value ([1]; HBSSg_7.4, sampling time 120 minutes): 99.3%
chemical stability in the tested matrices ([1]; HBSSg_7.4 and HBSS_8.5, 37° C., 0.5 μM): appeared to be stable
Percent of the 0-minute value ([1]; HBSSg_8.5, Overnight (1020-[…])): 98.6%
Percent of the 0-minute value ([1]; HBSSg_8.5, sampling time 0 minutes): 100%
Percent of the 0-minute value ([1]; HBSSg_8.5, sampling time 120 minutes): 79.4%

C[C@H](CCC(=O)NCCS(=O)(=O)O)[C@H]1CC[C@H]2[C@@H]3[C@@H](O)C[C@@H]4C[C@H](O)CC[C@]4(C)[C@H]3CC[C@]12C [TUDCA, tauroursodeoxycholic acid]
% Remaining of TA (n = 3) Average ([2]; 0 h): 100%
% Remaining of TA (n = 3) Average ([2]; 5 min): 101%
% Remaining of TA (n = 3) Average ([2]; 10 min): 103%
% Remaining of TA (n = 3) Average ([2]; 20 min): 95.5%
% Remaining of TA (n = 3) Average ([2]; 0.5 h): 105%
% Remaining of TA (n = 3) Average ([2]; 1 h): 97.7%
Papp A→B at 1.62 µM [3, 4]: 9.59 ×10⁻⁶ cm/s
Papp A→B at 81 µM [3, 4]: 5.84 ×10⁻⁶ cm/s
Papp A→B at […] [3, 4]: 7.47 ×10⁻⁶ cm/s
recovery at 1.62 μM [3, 5]: 78.5%
recovery at 16.2 μM [3, 5]: 71.6%
recovery at 81 μM [3, 5]: 101%
Papp B→A at 1.62 µM [3, 6]: 1.75 ×10⁻⁶ cm/s
Papp B→A at 16.2 µM [3, 6]: 0.553 ×10⁻⁶ cm/s
Papp B→A at 81 µM [3, 6]: 2.66 ×10⁻⁶ cm/s
Papp B→A at […] [3, 6]: 1.94 ×10⁻⁶ cm/s
recovery at 1.62 μM [3, 7]: 79.5%
recovery at 16.2 μM [3, 7]: 76.1%
recovery at 81 μM [3, 7]: 101%
